We go through 60 compounds from patent US11478460B2, “Diaryl substituted 6,5-fused ring compounds as C5aR inhibitors” (CHEMOCENTRYX, INC., priority 2017, dated 2022).

What is called IC50 is the midpoint of a concentration-inhibition curve.

Some results are limits rather than exact numbers.

The target of this experiment is C5aR (Homo sapiens (Human), UniProt P21730). The experiment is described as follows: Chemotaxis assay using U937 cells (C5aR mediated migration). The class given is cell-based. As to conditions: read-out: Mig IC50. Summed up: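 U937 monocytic cells, pretreated overnight with 0.5 mM cyclic AMP, placed at 100,000 cells in the upper well above 5 μm polycarbonate filters. Lower well held 0.03 nM C5a plus compound in HBSS/1% FBS; after 1.5 h at 37° C migrated cells counted directly or by CyQuant, giving IC50.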
Chain of C5aR (P21730 whole entry): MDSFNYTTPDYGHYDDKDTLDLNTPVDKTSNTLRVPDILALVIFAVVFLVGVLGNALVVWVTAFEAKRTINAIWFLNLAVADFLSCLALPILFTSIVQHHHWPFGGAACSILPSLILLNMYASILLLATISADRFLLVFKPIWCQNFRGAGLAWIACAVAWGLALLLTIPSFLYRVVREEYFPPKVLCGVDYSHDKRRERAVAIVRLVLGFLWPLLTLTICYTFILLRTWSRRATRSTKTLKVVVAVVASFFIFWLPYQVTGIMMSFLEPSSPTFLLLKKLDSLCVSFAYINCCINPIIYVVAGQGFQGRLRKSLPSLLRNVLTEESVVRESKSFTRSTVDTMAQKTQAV
In the case of `CCc1cccc(CC)c1-n1nc2c(c1-c1cc(F)c(NC(N)=O)cc1F)CN(C(CC)c1ccccc1)CC2` (stereo not drawn) [Example 1.162], the half-maximal inhibitory concentration (IC50) was not above 5 nM.
Take `Cc1cccc(OCC(C)C)c1-n1nc2c(c1-c1cc(F)c(NC(N)=O)cc1F)CN(c1ncc(C(F)(F)F)cc1F)CC2` [Example 1.242]: the IC50 is not above 5 nM.
Under `Cc1cc(C)c(CN2CCc3nn(-c4c(C)cccc4OCC(C)C)c(-c4ccc(NC(N)=O)cc4)c3C2)c(C)c1` [Example 1.365] stands not above 5 nM.
Regarding `Cc1cccc(OCC(C)C)c1-n1nc2c(c1-c1ccc(NC(N)=O)cc1)CN(C(=O)COC(C)(C)C)CC2` [Example 1.424], the IC50 is more than 500 nM.
Take `Cc1cnc(C(C)C)cc1N1CCc2nn(-c3c(C)cccc3OCC(C)C)c(-c3ccc(NC(N)=O)cc3)c2C1` [Example 1.348]: the half-inhibitory concentration (IC50) fell in the range of 5 to 50 nM.
With `CCc1cccc(CC)c1-n1nc2c(c1-c1ccc(NC(N)=O)c(F)c1)CN(CC1CCCC1)CC2` [Example 1.243], the IC50 was not above 5 nM.
Take `Cc1ccccc1CN1CCc2nn(-c3c(C)cccc3OCC(C)C)c(-c3ccc(NC(N)=O)cc3)c2C1` [Example 1.371]: the concentration for half-maximal inhibition (IC50) lay within 5 to 50 nM.
As for `CCc1cccc(CC)c1-n1nc2c(c1-c1cc(F)c(NC(N)=O)cc1F)CN(Cc1ccc(C(F)(F)F)cc1C(F)(F)F)[C@H](C)C2` [Example 1.022], the IC50 was not above 5 nM.
For the compound `CCC(C)(C)CN1CCc2nn(-c3c(C)cccc3OCC(C)C)c(-c3ccc(NC(N)=O)cc3)c2C1` [Example 1.381], the IC50 was 5 to 50 nM.
For the compound `CCc1cccc(CC)c1-n1nc2c(c1-c1cc(F)c(NC(N)=O)cc1F)CN(Cc1ccc(C(F)(F)F)cc1Cl)C(C)(C)C2` [Example 1.035], the IC50 was not above 5 nM.
The figure for `Cc1cccc(OCC(C)C)c1-n1nc2c(c1-c1ccc(NC(N)=O)cc1)CN(c1ncc(C(F)(F)F)cn1)CC2` [Example 1.352] is 5 to 50 nM; for `Cc1cccc(OCC(C)C)c1-n1nc2c(c1-c1ccc(NC(=O)N(C)C)cc1)CN(c1ncc(C(F)(F)F)cc1F)CC2` [Example 1.289] it is more than 500 nM.
As for `CCc1cccc(CC)c1-n1nc2c(c1-c1cc(F)c(NC(N)=O)cc1F)CN(Cc1ccc(Cl)cc1C(F)(F)F)[C@H](C)C2` [Example 1.021], the concentration for half-maximal inhibition (IC50) is not above 5 nM.
Under `Cc1cnc(N2CCc3nn(-c4c(C)cccc4OCC(C)C)c(-c4ccc(NC(N)=O)cc4)c3C2)c(C(F)(F)F)c1` [Example 1.296] stands not above 5 nM; under `Cc1cccc(OCC(C)C)c1-n1nc2c(c1-c1ccc(NC(N)=O)cc1)CN(Cc1cc(Cl)ccc1OC(C)C)CC2` [Example 1.280], 5 to 50 nM; under `CCc1cccc(CC)c1-n1nc2c(c1-c1ccc(NC(N)=O)c(F)c1)CN(C(C)C1CCCCC1)CC2` (stereo not drawn) [Example 1.223], not above 5 nM.
For the compound `Cc1cccc(OCC(C)C)c1-n1nc2c(c1-c1ccc(NC(N)=O)cc1)CN(c1ncc(C(F)(F)F)cc1F)CC2` [Example 1.374], the concentration for half-maximal inhibition (IC50) is 5 to 50 nM.
With `COc1cccc(C)c1-n1nc2c(c1-c1ccc(NC(C)C)cc1)CN(c1ccccc1C)CC2` [Example 1.489], the IC50 was more than 500 nM.
The figure for `CCc1cccc(CC)c1-n1nc2c(c1-c1cc(F)c(NC(N)=O)cc1C)CN(Cc1ccc(C(F)(F)F)cc1C(F)(F)F)CC2` [Example 1.068] is not above 5 nM; for `Cc1cccc(OCC(C)C)c1-n1nc2c(c1-c1cc(F)c(NC(N)=O)cc1F)CN(c1ncccc1F)CC2` [Example 1.178] it is not above 5 nM.
For the compound `Cc1cc(NC(N)=O)c(F)cc1-c1c2c(nn1-c1c(C)cccc1C)CCN(c1ccc(Cl)cc1Cl)C2` [Example 1.118], the half-inhibitory concentration (IC50) was not above 5 nM.
On to `COc1cccc(C)c1-n1nc2c(c1-c1ccc(NC(N)=O)cc1)CN(c1ccccc1C)CC2` [Example 1.484], for which the IC50 is 50 to 500 nM.
The figure for `Cc1cccc(OCC(C)C)c1-n1nc2c(c1-c1ccc(NC(N)=O)cc1)CN(Cc1ccccc1C(C)C)CC2` [Example 1.390] is 5 to 50 nM.
In the case of `CCOc1cccc(C)c1-n1nc2c(c1-c1ccc(N)cc1)CN(c1ccccc1C(C)C)CC2` [Example 1.479], the IC50 lay in the range of 50 to 500 nM.
For the compound `Cc1cccc(C)c1-n1nc2c(c1-c1cc(F)c(NC(=O)CN)cc1F)CN(c1ncc(Cl)cc1Cl)CC2` [Example 1.116], the 50% inhibitory concentration (IC50) is more than 500 nM.
`Cc1cccc(OCC(C)C)c1-n1nc2c(c1-c1ccc(NC(N)=O)cc1)CN(C(=O)c1cccc(C(C)(C)C)c1)CC2` [Example 1.433]: the 50% inhibitory concentration (IC50) lay in the range of 50 to 500 nM.
Regarding `CCc1cccc(CC)c1-n1nc2c(c1-c1cc(F)c(NC(N)=O)cc1F)CN(Cc1ccc(C(C)(C)C)cc1)CC2` [Example 1.054], the IC50 is not above 5 nM.
The figure for `Cc1cccc(OCC(C)C)c1-n1nc2c(c1-c1ccc(NC(N)=O)cc1)CN(c1ccc(C(C)(C)C)cn1)CC2` [Example 1.370] is 5 to 50 nM.
Take `Cc1cccc(C)c1-n1nc2c(c1-c1cc(F)c(NC(N)=O)cc1F)CN(c1ncc(Cl)cc1C#N)CC2` [Example 1.102]: the IC50 was not above 5 nM.
Under `Cc1cccc(OCC(C)C)c1-n1nc2c(c1-c1ccc(NC(N)=O)cc1)CN(Cc1c(Cl)cccc1Cl)CC2` [Example 1.367] stands 5 to 50 nM; under `CCc1cccc(CC)c1-n1nc2c(c1-c1cc(F)c(NC(N)=O)cc1F)CN(Cc1cc(C(F)(F)F)ccc1OC)CC2` [Example 1.037], not above 5 nM; under `CCC(C)(C)N1CCc2nn(-c3c(C)cccc3OCC(C)C)c(-c3ccc(NC(N)=O)c(F)c3)c2C1` [Example 1.230], 5 to 50 nM.
Take `CCc1cccc(CC)c1-n1nc2c(c1-c1cc(F)c(NC(N)=O)cc1F)CN(Cc1ccc(Cl)cc1Cl)CC2` [Example 1.073]: the half-inhibitory concentration (IC50) is not above 5 nM.
The figure for `Cc1cccc(OCC(C)C)c1-n1nc2c(c1-c1cc(F)c(NC(N)=O)cc1F)CN(c1ncnc3cc[nH]c13)CC2` [Example 1.140] is more than 500 nM.
Take `Cc1cccc(C)c1-n1nc2c(c1-c1cc(F)c(NC(N)=O)cc1F)CN(c1ncc(C(C)C)cn1)CC2` [Example 1.153]: the IC50 lay within 5 to 50 nM.
With `CCc1cccc(CC)c1-n1nc2c(c1-c1cc(F)c(NC(N)=O)cc1F)CN(CC1CCOCC1)C(C)(C)C2` [Example 1.040], the IC50 is not above 5 nM.
For `COc1cccc(C)c1-n1nc2c(c1-c1ccc(N(C)C)cc1)CN(c1ccccc1C)CC2` [Example 1.487], the 50% inhibitory concentration (IC50) is more than 500 nM.
On to `Cc1cccc(C)c1-n1nc2c(c1-c1cc(F)c(NC(N)=O)cc1F)CN(c1ncccc1Cl)CC2` [Example 1.127], for which the IC50 was not above 5 nM.
For `Cc1cccc(OCC(C)C)c1-n1nc2c(c1-c1ccc(NC(N)=O)cc1)CN(Cc1ccc(Cl)cc1C(F)(F)F)CC2` [Example 1.327], the IC50 is not above 5 nM.
Regarding `Cc1cccc(OCC(C)C)c1-n1nc2c(c1-c1cc(F)c(NC(N)=O)cc1F)CN(c1ncc(F)cn1)CC2` [Example 1.159], the half-inhibitory concentration (IC50) was not above 5 nM.
In the case of `CCc1cccc(CC)c1-n1nc2c(c1-c1cc(F)c(NC(N)=O)cc1F)CN(C(=O)C1CCOCC1)C(C)(C)C2` [Example 1.029], the IC50 is 5 to 50 nM.
Under `Cc1cccc(C)c1-n1nc2c(c1-c1ccc(NC(C)C)cc1)CN(c1ccccc1C(C)C)CC2` [Example 1.477] stands 50 to 500 nM; under `Cc1cccc(OCC(C)C)c1-n1nc2c(c1-c1ccc(NC(N)=O)cc1)CN(Cc1ccc(Cl)cc1F)CC2` [Example 1.323], not above 5 nM; under `Cc1cccc(OCC(C)C)c1-n1nc2c(c1-c1cc(F)c(NC(N)=O)cc1F)CN(c1ccc(Cl)cc1Cl)CC2` [Example 1.194], not above 5 nM.
In the case of `Cc1cccc(OCC(C)C)c1-n1nc2c(c1-c1ccc(NC(N)=O)cc1)CN(c1ccc(Cl)c(C(F)(F)F)c1)CC2` [Example 1.379], the IC50 was 5 to 50 nM.
For `Cc1cccc(C)c1-n1nc2c(c1-c1cc(F)c(NC(N)=O)cc1F)CN(Cc1ccc(C(F)(F)F)cc1C(F)(F)F)C(C)(C)C2` [Example 1.033], the IC50 is not above 5 nM.
For `CCc1cccc(CC)c1-n1nc2c(c1-c1cc(F)c(NC(N)=O)cc1F)CN(Cc1cc(C(F)(F)F)ccc1Cl)CC2` [Example 1.038], the concentration for half-maximal inhibition (IC50) is not above 5 nM.
In the case of `CCc1cccc(CC)c1-n1nc2c(c1-c1cc(F)c(NC(N)=O)cc1F)CN(CC1CCOC1)CC2` (stereo not drawn) [Example 1.020], the IC50 lay in the range of 5 to 50 nM.
Under `Cc1cc(C(C)(C)O)cnc1N1CCc2nn(-c3c(C)cccc3OCC(C)C)c(-c3ccc(NC(N)=O)cc3)c2C1` [Example 1.364] stands more than 500 nM.
In the case of `COc1cccc(C)c1-n1nc2c(c1-c1ccc(N)cc1)CN(c1ccccc1C(C)C)CC2` [Example 1.486], the IC50 lay in the range of 50 to 500 nM.
For `CCc1cccc(CC)c1-n1nc2c(c1-c1cc(F)c(NC(N)=O)cc1F)CN(C(CC)c1ccccc1F)CC2` (stereo not drawn) [Example 1.150], the IC50 was not above 5 nM.
Regarding `Cc1ccc(C(C)(C)C)cc1N1CCc2nn(-c3c(C)cccc3OC(C)C)c(-c3ccc(NC(N)=O)cc3)c2C1` [Example 1.444], the IC50 is not above 5 nM.
In the case of `CCc1cccc(CC)c1-n1nc2c(c1-c1cc(F)c(NC(N)=O)cc1F)CN(C(C)(C)c1cccc(OC)c1)CC2` [Example 1.156], the 50% inhibitory concentration (IC50) is not above 5 nM.
The figure for `Cc1cc(C)c(-n2nc3c(c2-c2ccc(NC(N)=O)cc2)CN(c2ncc(C(F)(F)F)cc2F)CC3)c(C)c1` [Example 1.287] is 5 to 50 nM; for `COc1cccc(C)c1-n1nc2c(c1-c1ccc(NC(N)=O)nc1)CN(c1ccccc1C(C)C)CC2` [Example 1.447] it is 50 to 500 nM; for `Cc1cccc(OCC(C)C)c1-n1nc2c(c1-c1ccc(NC(N)=O)cc1)CN(C(=O)C1CCCCC1)CC2` [Example 1.425] it is more than 500 nM.
For `CCc1cccc(CC)c1-n1nc2c(c1-c1cc(F)c(NC(N)=O)cc1F)CN(Cc1ccc(F)cc1C(F)(F)F)CC2` [Example 1.044], the IC50 was not above 5 nM.
`Cc1cccc(OCC(C)C)c1-n1nc2c(c1-c1ccc(NC(N)=O)cc1)CN(Cc1c(F)cc(F)cc1F)CC2` [Example 1.307]: the IC50 was 5 to 50 nM.
For the compound `Cc1ccc(C(C)(C)C)cc1N1CCc2nn(-c3c(C)cccc3CC(C)C)c(-c3ccc(NC(N)=O)cc3)c2C1` [Example 1.401], the IC50 was not above 5 nM.
Regarding `Cc1cccc(OCC(C)C)c1-n1nc2c(c1-c1cc(F)c(NC(N)=O)cc1F)CN(c1ncc(C3CC3)cc1F)CC2` [Example 1.172], the IC50 is not above 5 nM.
